Experimental data reported in ChEMBL document CHEMBL3046003, “Synthesis and antifungal activities of novel 5-amino-6-arylamino-1H-pyrazolo[3,4-d]pyrimidin-4(5H)-one derivatives” (2008).

How the values were obtained:
Assay type in all cases: functional
Conditions in all cases: read-out: GI
Botrytis cinerea [1] = test: Antifungal activity against Botryotinia fuckeliana assessed as growth inhibition at 50 mg/L
Sclerotinia sclerotiorum [2] = test: Antifungal activity against Sclerotinia sclerotiorum assessed as growth inhibition at 50 mg/L
Fusarium graminearum = test: Antifungal activity against Fusarium graminearum assessed as growth inhibition at 50 mg/L
Pyricularia oryzae = test: Antifungal activity against Magnaporthe oryzae assessed as growth inhibition at 50 mg/L
Sclerotinia sclerotiorum [3] = test: Antifungal activity against Sclerotinia sclerotiorum assessed as growth inhibition at 10 mg/L
Botrytis cinerea [4] = test: Antifungal activity against Botryotinia fuckeliana assessed as growth inhibition at 10 mg/L

SMILES	inhibition of growth at 50 µg/mL (Botrytis cinerea [1])	inhibition of growth at 50 µg/mL (Sclerotinia sclerotiorum [2])	inhibition of growth at 50 µg/mL (Fusarium graminearum)	inhibition of growth at 50 µg/mL (Pyricularia oryzae)	inhibition of growth at 10 µg/mL (Sclerotinia sclerotiorum [3])	inhibition of growth at 10 µg/mL (Botrytis cinerea [4])
CSc1nn(-c2ccccc2)c2nc(Nc3cccc(Cl)c3)n(N)c(=O)c12	99%	98%	57%	96%	76%	73%
CSc1nn(-c2ccccc2)c2nc(Nc3cccc(C)c3)n(N)c(=O)c12	71%	86%	46%	14%	52%	36%
CSc1nn(-c2ccccc2)c2nc3n(-c4ccc(F)cc4)cnn3c(=O)c12	71%	93%	49%	9%	70%	45%
CSc1nn(-c2ccccc2)c2nc3n(-c4ccccc4F)cnn3c(=O)c12	60%	50%	26%	5%	19%	31%
CSc1nn(-c2ccccc2)c2nc3n(-c4cccc(F)c4)cnn3c(=O)c12	91%	100%	74%	29%	83%	70%
O=c1c2c(SCc3ccccc3)nn(-c3ccccc3)c2nc2n(-c3ccc(F)cc3)cnn12	67%	75%	37%	43%	32%	30%
O=c1c2c(SCc3ccccc3)nn(-c3ccccc3)c2nc2n(-c3ccccc3F)cnn12	60%	96%	37%	14%	75%	27%
O=c1c2c(SCc3ccccc3)nn(-c3ccccc3)c2nc2n(-c3cccc(F)c3)cnn12	29%	29%	34%	0%	5%	5%
CSc1nn(-c2ccccc2)c2nc3n(-c4ccccc4)cnn3c(=O)c12	99%	100%	66%	80%	83%	70%
O=c1c2c(SCc3ccccc3)nn(-c3ccccc3)c2nc2n(-c3ccccc3)cnn12	73%	93%	60%	29%	67%	49%
c1ccc2[nH]c(-c3cscn3)nc2c1 [THIABENDAZOLE]	100%	100%	100%	87%		
